Data as given in patent US20250144069A1, “BILOBALIDE DERIVATIVE COMPOUNDS FOR TREATING NEUROLOGICAL DISEASES AND CANCERS” (The Chinese University of Hong Kong, priority 2023, published 2025).
Read-outs that look alike come from different tables or passages of the source.

Assays:
Type in all cases: cell-based, human
Jurkat cells = test: Single-dose CCK-8 cell viability screening (suspension cells); details: Homo sapiens, 48 h
Protocol: (§1) In this example, the anti-cancer properties of the BB analogues described in Table 1d were evaluated. Single-dose screening approach is used for initial testing to assess the cytotoxic effect of the BB analogues (also referred to as ‘BB compounds’) on Jurkat cells (human T cell leukaemia cells) and A549 cells (human lung cancer cells).
Method for Suspension Cells (Jurkat Cells)
5000 cells/90 uL were seeded in 96-well plates. 10 uL of 500 uM compound (10×) was added to each well in 6 replicates. The following controls were prepared.
Blank control: 10 uL 1% DMSO in media with no cells per well.
Positive control: 10 uL of 100 uM 5-flurouracil (10×) per well.
Negative control: 10 uL of 1% DMSO in media (10×) per well.
Each 96-well plate included 7 BB analogues and the complete set of controls (in 6 replicates).
(§2) Cells were incubated at 37° C.+5% CO2 for 46 hours. 10 uL of CCK8 solution was added to each well. Cells were then incubated at 37° C.+5% CO2 for 2 hours. Absorbance at 450 nm was measured using a multiplate reader.
(§3) Viability was calculated using the equation: […]
(§4) The benchmark in Table 2 was used to define the activities of each compound.

[1] = Single-dose CCK-8 cell viability screening (adherent cells); details: Homo sapiens, average of A549 and Jurkat % viability, 50 uM, 48 h
Protocol: as §1
(§5) Method for Adherent Cells (A549 Cells)
(§6) In this example, 5000 cells/100 uL were seeded in 96-well plates and incubate at 37° C.+5% CO2 overnight. Media were replaced with 100 uL of 50 uM compound per well in 6 replicates. The following controls were prepared.
(§7) Blank control: 100 uL 0.1% DMSO in media with no cells per well.
(§8) Positive control: 100 uL of 10 uM 5-flurouracil per well.
(§9) Negative control: 100 uL of 0.1% DMSO in media per well.
(§10) Each 96-well plate included 7 compounds and the complete set of controls (in 6 replicates).
as §2, §3, §4

A549 cells = test: as above; details: Homo sapiens, read-out: % Viability (50 uM, 48 h) A549
Protocol: as §1, §5, §6, §7, §8, §9, §10, §2, §3, §4

[2] = Jurkat, Jurkat cells, 50 uM, CCK-8, read-out: % Viability (50 uM, 48 h) Jurkat
[3] = A549, 48 h, A549 cells, 50 uM, 48 h, CCK-8
[4] = Jurkat, read-out: % Viability (50 uM, 48 h) Jurkat

For `CC(C)(C)[C@]1(O)C[C@@H]2OC(=O)C[C@@]23C(=O)O[C@@H]2N(CCC4CCNCC4)C(=O)C(OC(=O)c4ccccc4)[C@]213` (stereo in doubt) [XBB-024, 4-(2-((3aS,5aS,8S,8aS,9R,10aS)-8-(benzoyloxy)-9-(tert-butyl)-9-hydroxy-2,4,7-trioxohexahydro-4H,9H-furo [3″,2″:2′,3′]cyclopenta [1′,2′:3,4]furo[2,3-b]pyrrol-6(5aH)-yl)ethyl)piperidin-1-ium chloride], the viability at 50 µM (Jurkat cells; [2]) was 97.8%, the viability at 50 µM ([1]; A549, 48 h) was 96.2% and the viability at 50 µM (A549 cells; [3]) was 94.7%.

Compound `CC(C)(C)[C@]1(O)C[C@@H]2OC(=O)C[C@@]23C(=O)O[C@@H]2N(CCN4CCNCC4)C(=O)C(OC(=O)c4ccccc4)[C@]213` (stereo in doubt) [XBB-028, 4-(2-((3aS,5aS,8S,8aS,9R,10aS)-8-(benzoyloxy)-9-(tert-butyl)-9-hydroxy-2,4,7-trioxohexahydro-4H,9H-furo [3″,2″:2′,3′]cyclopenta [1′,2′:3,4]furo [2,3-b]pyrrol-6(5aH)-yl)ethyl)piperazin-1-ium chloride] has a viability at 50 µM (Jurkat cells; [2]) of 90.5%, a viability at 50 µM ([1]; A549, 48 h) of 89.7% and a viability at 50 µM (A549 cells; [3]) of 88.8%.

With `CN1C(=O)[C@H](OC(=O)c2ccccc2)[C@@]23[C@@H]1OC(=O)[C@@]21CC(=O)O[C@H]1C[C@@]3(O)C(C)(C)C` [DW168, (3aS,5aS,8R,8aS,9R,10aS)-9-(tert-butyl)-9-hydroxy-6-methyl-2,4,7-trioxooctahydro-4H,9H-furo [3″,2″:2′,3′]cyclopenta [1′,2′:3,4]furo[2,3-b]pyrrol-8-ylbenzoate] the viability at 50 µM (Jurkat cells; [2]) was 101%, the viability at 50 µM ([1]; A549, 48 h) was 103% and the viability at 50 µM (A549 cells; [3]) was 105%.

In the case of `CC(C)(C)[C@]1(O)C[C@@H]2OC(=O)C[C@@]23C(=O)O[C@@H]2N(C45CC(C4)C5)C(=O)[C@H](OC(=O)c4ccccc4)[C@]213` [DW172, (3aS,5aS,8R,8aS,9R,10aS)-6-(bicyclo[1.1.1]pentan-1-yl)-9-(tert-butyl)-9-hydroxy-2,4,7-trioxooctahydro-4H,9H-furo [3″,2″:2′,3′]cyclopenta [1′,2′:3,4]furo[2,3-b]pyrrol-8-yl benzoate], the viability at 50 µM (Jurkat cells; [4]) is reported as 94.4%, the viability at 50 µM [1] is reported as 96.6% and the viability at 50 µM (A549 cells; A549, 48 h) is reported as 98.7%.

With `CC(C)(C)[C@]1(O)C[C@@H]2OC(=O)C[C@@]23C(=O)O[C@@H]2N(C4COC4)C(=O)[C@H](OC(=O)c4ccccc4)[C@]213` [DW182, (3aS,5aS,8R,8aS,9R,10aS)-9-(tert-butyl)-9-hydroxy-6-(oxetan-3-yl)-2,4,7-trioxooctahydro-4H,9H-furo [3″,2″:2′,3′]cyclopenta [1′,2′:3,4]furo [2,3-b]pyrrol-8-yl benzoate] the viability at 50 µM (Jurkat cells; [2]) was 101%, the viability at 50 µM ([1]; A549, 48 h) was 107% and the viability at 50 µM (A549 cells; [3]) was 114%.

For `CC(C)(C)[C@]1(O)C[C@@H]2OC(=O)C[C@@]23C(=O)O[C@@H]2N(CC4CCC4)C(=O)[C@H](OC(=O)c4ccccc4)[C@]213` [DW184, (3aS,5aS,8R,8aS,9R,10aS)-9-(tert-butyl)-6-(cyclobutylmethyl)-9-hydroxy-2,4,7-trioxooctahydro-4H,9H-furo [3″,2″:2′,3′]cyclopenta [1′,2′:3,4]furo [2,3-b]pyrrol-8-yl benzoate], the viability at 50 µM (Jurkat cells; [2]) was 68.7%, the viability at 50 µM ([1]; A549, 48 h) was 81.1% and the viability at 50 µM (A549 cells; [3]) was 93.5%.

Compound `CC(C)(C)[C@]1(O)C[C@@H]2OC(=O)C[C@@]23C(=O)O[C@@H]2N(CC4CC4)C(=O)[C@H](OC(=O)c4ccccc4)[C@]213` [DW189, (3aS,5aS,8R,8aS,9R,10aS)-9-(tert-butyl)-6-(cyclopropylmethyl)-9-hydroxy-2,4,7-trioxooctahydro-4H,9H-furo [3″,2″:2′,3′]cyclopenta [1′,2′:3,4]furo[2,3-b]pyrrol-8-yl benzoate] has a viability at 50 µM (Jurkat cells; [2]) of 95.3%, a viability at 50 µM ([1]; A549, 48 h) of 101% and a viability at 50 µM (A549 cells; [3]) of 107%.

With `CC(C)(C)[C@]1(O)C[C@@H]2OC(=O)C[C@@]23C(=O)O[C@@H]2N(CC4COC4)C(=O)[C@H](OC(=O)c4ccccc4)[C@]213` [DW191, (3aS,5aS,8R,8aS,9R,10aS)-9-(tert-butyl)-6-(1-oxetan-3-ylmethyl)-9-hydroxy-2,4,7-trioxooctahydro-4H,9H-furo [3″,2″:2′,3′]cyclopenta [1′,2′:3,4]furo [2,3-b]pyrrol-8-yl benzoate] the viability at 50 µM (Jurkat cells; [2]) was 105%, the viability at 50 µM ([1]; A549, 48 h) was 103% and the viability at 50 µM (A549 cells; [3]) was 101%.

`CC(C)(C)[C@]1(O)C[C@@H]2OC(=O)C[C@@]23C(=O)O[C@@H]2N(N)C(=O)[C@H](O)[C@]213` [JW072, (3aS,5aS,8R,8aS,9R,10aS)-6-amino-9-(tert-butyl)-8,9-dihydroxytetrahydro-4H,9H-furo [3″,2″:2′,3′]cyclopenta [1′,2′:3,4]furo [2,3-b]pyrrole-2,4,7(3H,8H)-trione] showed a viability at 50 µM (Jurkat cells; Jurkat cells, 50 uM, CCK-8, read-out: % Viability (50 uM, 48 h) Jurkat) of 97.2%, a viability at 50 µM [1] of 100% and a viability at 50 µM (A549 cells; A549 cells, 50 uM, 48 h, CCK-8) of 103%.

`CC(C)(C)[C@]1(O)C[C@@H]2OC(=O)C[C@@]23C(=O)O[C@@H]2N(C4CCCC4)C(=O)[C@H](OC(=O)c4ccccc4)[C@]213` [JW081, (3aS,5aS,8R,8aS,9R,10aS)-9-(tert-butyl)-6-cyclopentyl-9-hydroxy-2,4,7-trioxooctahydro-4H,9H-furo[3″,2″:2′,3′]cyclopenta [1′,2′:3,4]furo[2,3-b]pyrrol-8-yl benzoate] gave a viability at 50 µM (Jurkat cells; [4]) of 87.1%, a viability at 50 µM [1] of 88.3% and a viability at 50 µM (A549 cells; A549, 48 h) of 89.5%.

Work on `COc1cccc(N2C(=O)[C@H](OC(=O)c3ccccc3)[C@@]34[C@@H]2OC(=O)[C@@]32CC(=O)O[C@H]2C[C@@]4(O)C(C)(C)C)c1` [JW092, (3aS,5aS,8R,9R,10aS)-9-(tert-butyl)-9-hydroxy-6-(3-methoxyphenyl)-2,4,7-trioxodecahydrofuro [3″,2″:2′,3′]cyclopenta [1′,2′:3,4]furo [2,3-b]pyrrol-8-yl benzoate] yielded a viability at 50 µM (Jurkat cells; [2]) of 69.3%, a viability at 50 µM ([1]; A549, 48 h) of 61.5% and a viability at 50 µM (A549 cells; [3]) of 53.7%.

Compound `COc1ccc(N2C(=O)[C@H](OC(=O)c3ccccc3)[C@@]34[C@@H]2OC(=O)[C@@]32CC(=O)O[C@H]2C[C@@]4(O)C(C)(C)C)cc1` [JW093, (3aS,5aS,8R,9R,10aS)-9-(tert-butyl)-9-hydroxy-6-(4-methoxyphenyl)-2,4,7-trioxodecahydrofuro [3″,2″:2′,3′]cyclopenta [1′,2′:3,4]furo [2,3-b]pyrrol-8-yl benzoate] has a viability at 50 µM (Jurkat cells; [2]) of 66.3%, a viability at 50 µM ([1]; A549, 48 h) of 67.5% and a viability at 50 µM (A549 cells; [3]) of 68.7%.

In the case of `CC(C)(C)[C@]1(O)C[C@@H]2OC(=O)C[C@@]23C(=O)O[C@@H]2N(c4ccc5ccccc5c4)C(=O)[C@H](OC(=O)c4ccccc4)[C@]213` [JW094, (3aS,5aS,8R,9R,10aS)-9-(tert-butyl)-9-hydroxy-6-(naphthalen-2-yl)-2,4,7-trioxodecahydrofuro [3″,2″:2′,3′]cyclopenta [1′,2′:3,4]furo [2,3-b]pyrrol-8-yl benzoate], the viability at 50 µM (Jurkat cells; [2]) is reported as 76.9%, the viability at 50 µM ([1]; A549, 48 h) is reported as 76.7% and the viability at 50 µM (A549 cells; [3]) is reported as 76.5%.

For `COc1ccccc1N1C(=O)[C@H](OC(=O)c2ccccc2)[C@@]23[C@@H]1OC(=O)[C@@]21CC(=O)O[C@H]1C[C@@]3(O)C(C)(C)C` [JW095, (3aS,5aS,8R,9R,10aS)-9-(tert-butyl)-9-hydroxy-6-(2-methoxyphenyl)-2,4,7-trioxodecahydrofuro [3″,2″:2′,3′]cyclopenta [1′,2′:3,4]furo [2,3-b]pyrrol-8-yl benzoate], the viability at 50 µM (Jurkat cells; [2]) was 69%, the viability at 50 µM ([1]; A549, 48 h) was 78.1% and the viability at 50 µM (A549 cells; [3]) was 87.2%.

`CC(C)(C)[C@]1(O)C[C@@H]2OC(=O)C[C@@]23C(=O)O[C@@H]2N(c4cccc(C(F)(F)F)c4)C(=O)[C@H](OC(=O)c4ccccc4)[C@]213` [JW100, (3aS,5aS,8R,9R,10aS)-9-(tert-butyl)-9-hydroxy-2,4,7-trioxo-6-(3-(trifluoromethyl)phenyl)octahydro-4H,9H-furo [3″,2″:2′,3′]cyclopenta [1′,2′:3,4]furo [2,3-b]pyrrol-8-yl benzoate] gave a viability at 50 µM (Jurkat cells; [4]) of 68.2%, a viability at 50 µM ([1]; A549, 48 h) of 61.1% and a viability at 50 µM (A549 cells; A549, 48 h) of 54%.

Work on `CC(C)(C)[C@]1(O)C[C@@H]2OC(=O)C[C@@]23C(=O)O[C@@H]2N(c4ccc(O)cc4)C(=O)[C@H](OC(=O)c4ccccc4)[C@]213` [JW103, (3aS,5aS,8R,9R,10aS)-9-(tert-butyl)-6-(4-hydroxyphenyl)-9-hydroxy-2,4,7-trioxodecahydrofuro [3″,2″:2′,3′]cyclopenta [1′,2′:3,4]furo [2,3-b]pyrrol-8-yl benzoate] yielded a viability at 50 µM (Jurkat cells; [2]) of 82.2%, a viability at 50 µM ([1]; A549, 48 h) of 92.2% and a viability at 50 µM (A549 cells; [3]) of 102%.
